US9382426B2, “Water-insoluble coloring compound, ink, thermal transfer recording sheet, and color filter resist composition” (CANON KABUSHIKI KAISHA, priority 2012, dated 2016)

How the values were obtained:
Type in all cases: physicochemical
[1] = Light resistance evaluation of compound: ink image samples on paper, xenon tester; parameters: key to Light resistance ΔE (color difference): ΔE = Euclidean distance of L*a*b* before vs after exposure; conditions: ink image sample on paper; xenon tester 10 hours, 0.39 W/m^2 at 340 nm, 40° C., relative humidity 60%
Description: Ink (1) of the present invention was prepared by mixing 5 parts of Compound (1) as the water-insoluble coloring compound of the present invention, 350 parts of toluene, 350 parts of ethyl acetate, and 300 parts of 2-butanone.
Inks (1), (2), (4), (8), (13), (15), (23), (28), (29), and (30) and Comparative Inks (1) and (2) were each applied onto paper for contrast ratio measurement by bar coating (Bar No. 10) and were air-dried overnight to produce image samples. Chromaticity values (L*, a*, b*) in the L*a*b* color system of each image sample were measured with a reflection densitometer SpectroLino (manufactured by Gretag Macbeth AG).
(§1) Each of the image samples produced in the chromaticity measurement was charged in a xenon tester (Atlas Ci4000, manufactured by Suga Test Instruments Co., Ltd.) and was subjected to exposure conditions (irradiance: 0.39 W/m^2 at 340 nm, temperature: 40° C., relative humidity: 60%) for 10 hours. The reflection densities of printed matters were measured before and after the test. The color difference (ΔE) was calculated from the initial chromaticity values a0*, b0*, L0* and the chromaticity values a*, b*, L after the exposure by the following expression: ΔE=√{square root over ((a*−a0*)^2+(b*−b0*)^2+(L*−L0*)^2)} [Math. 1] The evaluation criteria are as follows: • A: ΔE<3.50 • B: 3.50≦ΔE<5.00 • C: 5.00≦ΔE

[2] = Evaluation of light resistance of thermal transfer recording sheets, xenon tester; conditions: thermal transfer recording sheet containing the compound; xenon tester 50 hours, 0.39 W/m^2 at 340 nm, 40° C., relative humidity 60%
Description: Ink (14) of the present invention was prepared by gradually adding 5 parts of a polyvinyl butyral resin (Denka 3000-K, manufactured by Denki Kagaku Kogyo K.K.) to a solution of 13.5 parts of Compound (4), as the water-insoluble coloring compound of the present invention, in a mixture of 45 parts of methyl ethyl ketone and 45 parts of toluene with stirring.
Ink (14) was applied onto a polyethylene terephthalate film (Lumirror, manufactured by Toray Industries, Inc.) having a thickness of 4.5 μm so as to have a dried thickness of 1 μm and was dried to produce thermal transfer recording sheet (4).
as §1, with “the resulting color filters and” for “the image samples produced in”, “the thermal transfer recording sheets” for “the chromaticity measurement”, “for 50” for “for 10”, “b*, L*” for “b*, L”, “[Math. 2]” for “[Math. 1]”

[3] = Evaluation of light resistance of color filters, xenon tester; conditions: color filter containing the compound; xenon tester 50 hours, 0.39 W/m^2 at 340 nm, 40° C., relative humidity 60%
Description: Ink (11) of the present invention was prepared by mixing 12 parts of Compound (1) as the water-insoluble coloring compound of the present invention and 120 parts of cyclohexanone and dispersing the mixture with an attritor (manufactured by Mitsui Mining Co., Ltd.) for 1 hour.
Twenty-two parts of Ink (11) was slowly added to a solution of 6.7 parts of an acrylic copolymer composition (weight average molecular weight Mw: 10000) composed of, as a monomer ratio, 40% by mass of n-butyl methacrylate, 30% by mass of acrylic acid, and 30% by mass of hydroxyethyl methacrylate, 1.3 parts of dipentaerythritol pentaacrylate, and 0.4 parts of 2-benzyl-2-dimethylamino-1-(4-morpholinophenyl)-butanone (photopolymerization initiator) in 96 parts of cyclohexanone, followed by stirring at room temperature for 3 hours. The reaction solution was filtered through a filter of 1.5 μm pore size to yield color filter yellow resist composition (1) of the present invention.
Color filter yellow resist composition (1) was spin-coated on a glass substrate and was then dried at 90° C. for 3 min, and the entire surface was then exposed to light and post-cured at 180° C. to produce color filter (1).
as §1, with “the resulting color filters and” for “the image samples produced in”, “the thermal transfer recording sheets” for “the chromaticity measurement”, “for 50” for “for 10”, “b*, L*” for “b*, L”, “[Math. 2]” for “[Math. 1]”

Row | Light resistance ΔE (color difference) [1] | Light resistance ΔE, evaluation grade [1] | Light resistance ΔE (color difference) [2] | Light resistance ΔE, evaluation grade [2] | Light resistance ΔE (color difference) [3] | Light resistance ΔE, evaluation grade [3] | Compound
1 | 3.77 | B (B: 3.50≦ΔE<5.00) | 2.56 | A (A: ΔE<3.50) |  |  | CCCCC(CC)CN(CC(CC)CCCC)S(=O)(=O)c1ccc(/N=N/c2c(C)c(C#N)c(=O)n(N(C)C(=O)C(C)(C)C)c2O)cc1 (stereo not drawn) [Compound (29)]
2 | 1.64 | A (A: ΔE<3.50) | 2.32 | A (A: ΔE<3.50) |  |  | CCCCC(CC)CN(CC(CC)CCCC)C(=O)c1ccc(/N=N/c2c(C)c(C#N)c(=O)n(N3CCCCC3)c2O)cc1 (stereo not drawn) [Compound (28)]
3 | 1.70 | A (A: ΔE<3.50) | 2.76 | A (A: ΔE<3.50) |  |  | CCCCC(CC)CN(CC(CC)CCCC)C(=O)c1cccc(/N=N/c2c(C)c(C#N)c(=O)n(N)c2O)c1 (stereo not drawn) [Compound (4)]
4 | 3.64 | B (B: 3.50≦ΔE<5.00) |  |  | 2.99 | A (A: ΔE<3.50) | CCCCC(CC)CN(CC(CC)CCCC)C(=O)c1ccccc1/N=N/c1c(C)c(C#N)c(=O)n(N)c1O (stereo not drawn) [Compound (1)]
5 | 2.44 | A (A: ΔE<3.50) | 4.89 | B (B: 3.50≦ΔE<5.00) |  |  | CCCCC(CC)CN(CC(CC)CCCC)C(=O)c1ccc(/N=N/c2c(C)c(C#N)c(=O)n(N(CCCC)CCCC)c2O)cc1 (stereo not drawn) [Compound (30)]
6 | 3.98 | B (B: 3.50≦ΔE<5.00) | 3.37 | A (A: ΔE<3.50) |  |  | CCCCC(CC)CN(CC(CC)CCCC)C(=O)c1cccc(/N=N/c2c(C)c(C#N)c(=O)n(N(C)C)c2O)c1 (stereo not drawn) [Compound (13)]
7 | 4.32 | B (B: 3.50≦ΔE<5.00) |  |  | 4.21 | B (B: 3.50≦ΔE<5.00) | CCCCC(CC)CN(CC(CC)CCCC)C(=O)c1cccc(/N=N/c2c(C)c(C#N)c(=O)n(NC(=O)C(CC)CCCC)c2O)c1 (stereo not drawn) [Compound (15)]
8 | 10.6 | C (C: 5.00≦ΔE) | 15.1 | C (C: 5.00≦ΔE) | 12.8 | C (C: 5.00≦ΔE) | Cc1c(/N=N/c2ccccc2)c(O)n(N)c(=O)c1C#N [Comparative Compound (1), reference compound]
9 | 2.81 | A (A: ΔE<3.50) |  |  | 2.68 | A (A: ΔE<3.50) | CCCCC(CC)CN(CC(CC)CCCC)C(=O)c1ccc(/N=N/c2c(-c3ccccc3)c(C#N)c(=O)n(NC(=O)c3ccccc3)c2O)cc1 (stereo not drawn) [Compound (8)]
10 | 2.37 | A (A: ΔE<3.50) | 2.54 | A (A: ΔE<3.50) |  |  | CCCCC(CC)CN(CC(CC)CCCC)S(=O)(=O)c1ccc(/N=N/c2c(C)c(C#N)c(=O)n(N)c2O)cc1 (stereo not drawn) [Compound (23)]
